What was measured:
H2122 clones = experiment: Toxicity to H2122 clones with loss of HMOX2; type: cell-based, human
Experimental: FIG. 7O. H2122 cells were engineered to have homozygous or heterozygous loss of HMOX2. hCas9 and guide RNA's targeting HMOX2 were co-expressed in H2122 cells and then cells were individually cloned. Individual clones were raised and analyzed for HMOX2 expression.
FIG. 7P. HMOX2 loss has no impact on the sensitivity of cells to SW208108. A dose response curve assaying the toxicity of SW208108 to H2122 clones identified in FIG. 7O was determined. There is no correlation between HMOX2 expression and SW208108 potency.
However, when HO2 was knocked out from H2122 cells using Crisper technology (FIG. 7O), no toxicity was observed, and SW208108 and related compounds retained toxicity towards H2122 cells (FIG. 7P). We conclude that HO2 is not required for cell survival or for the cytotoxicity of the selective toxins.

H2122 = experiment: Cell viability dose-response, H2122; type: cell-based, human; details: text b138; read-out: IC50 towards H2122 cells
Method in brief: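 Viability read as total ATP (Cell Titer Glo) following 4 days' compound exposure, with IC50 derived from dose-response curves. Duplicate 12-point series, top concentration 50 micromolar with 3-fold steps, on cells seeded at 15% confluence in RPMI-1640, 5% FBS, 2 mM L-glutamine.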

SCD1 = molecular target: T1, SCD1 (Homo sapiens, UniProt O00767); experiment: Cross-linking of SW208108 in 12 NSCLC cell lines; type: cell-based
T1 sequence (O00767 1-359): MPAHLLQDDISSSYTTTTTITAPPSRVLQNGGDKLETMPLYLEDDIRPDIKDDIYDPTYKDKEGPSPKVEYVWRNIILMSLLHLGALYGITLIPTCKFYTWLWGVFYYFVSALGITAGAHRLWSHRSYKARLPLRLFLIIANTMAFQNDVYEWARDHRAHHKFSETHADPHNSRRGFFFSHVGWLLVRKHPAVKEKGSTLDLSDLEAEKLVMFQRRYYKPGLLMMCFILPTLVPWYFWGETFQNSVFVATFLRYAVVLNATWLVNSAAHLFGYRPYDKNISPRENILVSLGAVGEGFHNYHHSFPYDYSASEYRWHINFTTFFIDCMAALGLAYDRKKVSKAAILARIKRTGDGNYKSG
Experimental: FIGS. 9A-9D. Selective toxins selectively cross-link to SCD1 in sensitive cells and are selectively metabolized in sensitive cells. FIG. 9A. 12 NSCLC cell lines were incubated with SW208108 and processed as described in FIG. 7. […] FIG. 9B. […] FIG. 9C. […] Demethylation is the anticipated mode of metabolism. FIG. 9D. A representative benzothiazole is demethylated by sensitive cell lines. […] Values in FIGS. 9C and 9D were obtained by tandem HPLC/MS/MS.
In this context, 12 different NSCLC cell lines were treated with SW208108, lysed and clicked to a dye as previously described. […] To understand how SW208108 could selectively cross-link to SCD1 within some cell lines that expressed the enzyme but not other cell lines that expressed the same enzyme, we investigated the stability of a representative oxalamide in the presence of a sensitive and insensitive cell line. […] Similarly, a representative benzothiazole was metabolized by H2122 cells through, at least in part, the loss of the O-methyl group (FIG. 9D).

H2122 cells [1] = experiment: Covalent labelling of proteins in H2122 cells (click to fluorescent azide, SDS-PAGE); type: cell-based, human
Experimental: FIG. 7A. […] H2122 cells were treated with the indicated concentrations of SW208108 for 4 h followed by irradiation with a UV light or no irradiation. Cells were then lysed, protein was precipitated, resuspended in buffer and conjugated to an azide-containing dye using Cu catalysis following standard protocols. Samples were resolved under denaturing conditions on an SDS-PAGE gel and visualized using a fluorescent imager at the indicated wavelengths.
FIG. 7B. Chromone and Benzothiazole alkynes, like the oxalamide, covalently bind proteins of similar molecular weight. The arrows indicate a 37 kD and 30 kD band common to all three scaffolds.
To identify the target of the benzothiazoles, oxalamides, N-acyl ureas and chromones, we generated a potent oxalamide, SW208108, that features both a “crosslinker” and a “tag”. Upon exposure to UV light, the benzophenone group becomes reactive and was anticipated to crosslink to a nearby amino acid, and the alkyne serves as a “tag” by its capacity to react with an azide through “click chemistry”. Combining these features, we treated H2122 cells with various concentrations of SW208108 and either cultured them normally (“−UV”) or irradiated them briefly with UV light (“+UV”). Subsequently, we “clicked” the resulting lysate to a fluorescent azide, and detected multiple fluorescently labeled proteins on SDS-PAGE (FIG. 7A). […]

H2122 cells [2] = experiment: Lipid ratios in H2122 cells by MS/MS; type: cell-based, human; details: 100 nM, within 6 hours
Experimental: FIG. 8A. Covalent binders of SCD1 affect lipid ratios in human cancer cells. H2122 cells were treated with 100 nM SW208108 for the indicated times before a lipid extraction was performed. Lipid extracts were analyzed by MS/MS in order to determine the fractional content of 8 different lipid species including triacylglycerols (TAG) and diacylglycerols (DAG). In MS/1, the total number of carbons and number of unsaturated bonds was determined for all of the fatty acid chains. For example, TAG (50:3) is a triacylglycerol with 3 fatty acid chains that all together have 50 carbons and 3 unsaturated bonds. The mass for one of these fatty acids was determined in MS/2 and is listed as noted by its carbon length and unsaturated bond number using the same notation.
SCD1 catalyzes the dehydrogenation of saturated fatty acid-CoA's to form unsaturated fatty acid-CoA's. For example, the enzyme gets its name from the conversion of stearic acid-CoA to oleic acid-CoA. For this reason, inhibition SCD1 was expected to alter the ratio of saturated:unsaturated fatty acids.

C#CCOc1ccc(C(=O)c2ccc(NC(=O)C(=O)NCCc3ccc(OC)cc3)cc2)cc1 [SW208108]
impact of HMOX2 loss on sensitivity of H2122 clones (H2122 clones): no impact
IC50 (H2122): 30 nM
cross linked SCD1 bands in 12 NSCLC cell lines (SCD1): Prominent cross linked bands
covalent modification of proteins (p37, p30) in H2122 cells without UV (H2122 cells [1]): covalently cross links proteins
saturated vs unsaturated fatty acids in neutral lipids (H2122 cells [2]): increased the percentage of neutral lipids containing saturated fatty acids
